The source of these data is ChEMBL document CHEMBL1201862, “PubChem BioAssay data set” (2004).

Calls of active or inactive are those of the source.

One test has as its target T1, Protein RecA (Mycobacterium tuberculosis, UniProt P9WHJ3).
T1 sequence (P9WHJ3 whole entry): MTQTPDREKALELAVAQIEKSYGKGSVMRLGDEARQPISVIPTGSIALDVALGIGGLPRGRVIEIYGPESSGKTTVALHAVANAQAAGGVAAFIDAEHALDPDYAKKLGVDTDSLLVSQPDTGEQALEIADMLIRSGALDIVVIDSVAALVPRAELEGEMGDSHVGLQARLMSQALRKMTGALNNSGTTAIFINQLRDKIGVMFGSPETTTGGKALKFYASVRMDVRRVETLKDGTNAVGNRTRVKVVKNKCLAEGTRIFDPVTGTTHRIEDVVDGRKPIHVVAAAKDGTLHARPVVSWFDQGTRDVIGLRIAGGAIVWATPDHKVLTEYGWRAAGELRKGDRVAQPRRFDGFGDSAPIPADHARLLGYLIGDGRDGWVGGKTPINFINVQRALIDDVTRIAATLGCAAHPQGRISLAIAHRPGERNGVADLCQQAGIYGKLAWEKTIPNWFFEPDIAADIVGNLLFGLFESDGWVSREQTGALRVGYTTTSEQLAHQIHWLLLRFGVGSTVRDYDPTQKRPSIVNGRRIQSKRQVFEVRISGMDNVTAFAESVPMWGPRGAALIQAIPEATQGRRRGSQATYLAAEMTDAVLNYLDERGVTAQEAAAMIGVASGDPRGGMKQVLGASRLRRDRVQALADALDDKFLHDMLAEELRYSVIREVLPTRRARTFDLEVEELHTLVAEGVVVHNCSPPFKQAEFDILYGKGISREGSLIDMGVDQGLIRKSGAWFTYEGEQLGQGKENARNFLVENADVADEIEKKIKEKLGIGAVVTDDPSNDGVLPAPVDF
The test can be described thus: Fluorescence Cell-Free Homogeneous Dose Retest to Identify Inhibitors of RecA-Intein Splicing Activity. [Related pubchem assays (depositor defined):AID2097, AID2223, AID489010, AID492950]. The test is classed as functional.

Test [1] addresses T2, Replicative DNA helicase DnaB (Mycobacterium tuberculosis, UniProt P9WMR3).
T2 sequence (P9WMR3 whole entry): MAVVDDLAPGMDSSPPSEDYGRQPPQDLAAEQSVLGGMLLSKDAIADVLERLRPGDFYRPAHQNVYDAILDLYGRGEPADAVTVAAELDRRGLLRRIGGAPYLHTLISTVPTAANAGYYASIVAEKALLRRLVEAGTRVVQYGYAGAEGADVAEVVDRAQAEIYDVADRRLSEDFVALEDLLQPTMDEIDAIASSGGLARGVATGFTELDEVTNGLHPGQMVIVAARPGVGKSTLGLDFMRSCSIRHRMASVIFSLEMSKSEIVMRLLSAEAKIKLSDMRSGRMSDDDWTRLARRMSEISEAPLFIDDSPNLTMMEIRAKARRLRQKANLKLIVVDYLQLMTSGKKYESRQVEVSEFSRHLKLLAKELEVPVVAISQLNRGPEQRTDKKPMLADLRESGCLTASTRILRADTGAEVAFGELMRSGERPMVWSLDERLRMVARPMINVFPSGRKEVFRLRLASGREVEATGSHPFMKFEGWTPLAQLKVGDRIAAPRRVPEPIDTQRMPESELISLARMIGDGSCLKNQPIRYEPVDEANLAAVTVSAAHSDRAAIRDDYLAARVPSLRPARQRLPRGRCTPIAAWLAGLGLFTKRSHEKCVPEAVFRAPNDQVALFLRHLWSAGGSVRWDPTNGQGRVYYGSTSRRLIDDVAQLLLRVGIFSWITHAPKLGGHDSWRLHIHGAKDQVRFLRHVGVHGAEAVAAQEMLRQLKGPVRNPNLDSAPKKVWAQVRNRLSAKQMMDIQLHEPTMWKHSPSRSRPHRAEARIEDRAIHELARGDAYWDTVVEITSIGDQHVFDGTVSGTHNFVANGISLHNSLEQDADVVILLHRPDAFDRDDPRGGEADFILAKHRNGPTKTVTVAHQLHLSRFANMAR
Put plainly: DnaB intein splicing inhibitors, dose response, biochemical, cell-free fluorescence (AID 449749). The test is classed as functional.

Test [2] deals with T3, Apoptotic protease-activating factor 1 (Homo sapiens, UniProt O14727).
T3 sequence (O14727 whole entry): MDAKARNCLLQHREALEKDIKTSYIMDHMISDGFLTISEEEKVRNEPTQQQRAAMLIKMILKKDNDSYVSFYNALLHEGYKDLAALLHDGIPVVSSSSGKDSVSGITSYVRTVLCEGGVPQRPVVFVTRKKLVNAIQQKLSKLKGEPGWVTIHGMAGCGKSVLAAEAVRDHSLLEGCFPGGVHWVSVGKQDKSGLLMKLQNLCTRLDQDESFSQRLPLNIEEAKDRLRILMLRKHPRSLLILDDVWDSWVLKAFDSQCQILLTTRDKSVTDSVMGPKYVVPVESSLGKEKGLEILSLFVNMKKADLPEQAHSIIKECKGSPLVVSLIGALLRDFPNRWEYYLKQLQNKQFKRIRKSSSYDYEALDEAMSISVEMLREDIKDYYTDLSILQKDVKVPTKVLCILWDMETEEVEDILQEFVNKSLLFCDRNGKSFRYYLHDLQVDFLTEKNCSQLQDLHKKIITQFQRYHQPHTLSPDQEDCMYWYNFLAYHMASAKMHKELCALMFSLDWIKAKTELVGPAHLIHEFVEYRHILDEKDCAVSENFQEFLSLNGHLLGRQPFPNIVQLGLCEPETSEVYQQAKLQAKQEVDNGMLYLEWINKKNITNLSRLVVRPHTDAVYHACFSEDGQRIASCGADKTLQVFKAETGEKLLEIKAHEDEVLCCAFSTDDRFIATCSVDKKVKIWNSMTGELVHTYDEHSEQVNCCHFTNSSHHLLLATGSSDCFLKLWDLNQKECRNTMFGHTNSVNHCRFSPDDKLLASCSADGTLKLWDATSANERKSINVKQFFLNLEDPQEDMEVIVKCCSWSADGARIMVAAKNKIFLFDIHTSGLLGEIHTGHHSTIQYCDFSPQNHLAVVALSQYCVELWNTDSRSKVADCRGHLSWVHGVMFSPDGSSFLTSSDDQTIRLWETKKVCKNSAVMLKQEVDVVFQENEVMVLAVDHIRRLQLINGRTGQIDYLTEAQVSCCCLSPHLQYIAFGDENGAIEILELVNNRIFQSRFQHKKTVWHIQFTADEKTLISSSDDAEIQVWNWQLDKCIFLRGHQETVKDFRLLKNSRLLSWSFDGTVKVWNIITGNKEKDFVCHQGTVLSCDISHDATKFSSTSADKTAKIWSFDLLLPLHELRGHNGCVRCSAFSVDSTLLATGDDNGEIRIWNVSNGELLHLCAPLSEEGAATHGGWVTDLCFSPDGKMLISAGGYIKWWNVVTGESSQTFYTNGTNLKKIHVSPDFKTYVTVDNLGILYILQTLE
Format: functional.

The target of test [3] is Voltage-gated N-type calcium channel alpha-1B subunit/Amyloid beta A4 precursor protein-binding family A member 1 (Homo sapiens, UniProt Q00975+Q02410). The test is classed as protein assay.
Sequence of Voltage-gated N-type calcium channel alpha-1B subunit/Amyloid beta A4 precursor protein-binding family A member 1 (Q00975 whole entry): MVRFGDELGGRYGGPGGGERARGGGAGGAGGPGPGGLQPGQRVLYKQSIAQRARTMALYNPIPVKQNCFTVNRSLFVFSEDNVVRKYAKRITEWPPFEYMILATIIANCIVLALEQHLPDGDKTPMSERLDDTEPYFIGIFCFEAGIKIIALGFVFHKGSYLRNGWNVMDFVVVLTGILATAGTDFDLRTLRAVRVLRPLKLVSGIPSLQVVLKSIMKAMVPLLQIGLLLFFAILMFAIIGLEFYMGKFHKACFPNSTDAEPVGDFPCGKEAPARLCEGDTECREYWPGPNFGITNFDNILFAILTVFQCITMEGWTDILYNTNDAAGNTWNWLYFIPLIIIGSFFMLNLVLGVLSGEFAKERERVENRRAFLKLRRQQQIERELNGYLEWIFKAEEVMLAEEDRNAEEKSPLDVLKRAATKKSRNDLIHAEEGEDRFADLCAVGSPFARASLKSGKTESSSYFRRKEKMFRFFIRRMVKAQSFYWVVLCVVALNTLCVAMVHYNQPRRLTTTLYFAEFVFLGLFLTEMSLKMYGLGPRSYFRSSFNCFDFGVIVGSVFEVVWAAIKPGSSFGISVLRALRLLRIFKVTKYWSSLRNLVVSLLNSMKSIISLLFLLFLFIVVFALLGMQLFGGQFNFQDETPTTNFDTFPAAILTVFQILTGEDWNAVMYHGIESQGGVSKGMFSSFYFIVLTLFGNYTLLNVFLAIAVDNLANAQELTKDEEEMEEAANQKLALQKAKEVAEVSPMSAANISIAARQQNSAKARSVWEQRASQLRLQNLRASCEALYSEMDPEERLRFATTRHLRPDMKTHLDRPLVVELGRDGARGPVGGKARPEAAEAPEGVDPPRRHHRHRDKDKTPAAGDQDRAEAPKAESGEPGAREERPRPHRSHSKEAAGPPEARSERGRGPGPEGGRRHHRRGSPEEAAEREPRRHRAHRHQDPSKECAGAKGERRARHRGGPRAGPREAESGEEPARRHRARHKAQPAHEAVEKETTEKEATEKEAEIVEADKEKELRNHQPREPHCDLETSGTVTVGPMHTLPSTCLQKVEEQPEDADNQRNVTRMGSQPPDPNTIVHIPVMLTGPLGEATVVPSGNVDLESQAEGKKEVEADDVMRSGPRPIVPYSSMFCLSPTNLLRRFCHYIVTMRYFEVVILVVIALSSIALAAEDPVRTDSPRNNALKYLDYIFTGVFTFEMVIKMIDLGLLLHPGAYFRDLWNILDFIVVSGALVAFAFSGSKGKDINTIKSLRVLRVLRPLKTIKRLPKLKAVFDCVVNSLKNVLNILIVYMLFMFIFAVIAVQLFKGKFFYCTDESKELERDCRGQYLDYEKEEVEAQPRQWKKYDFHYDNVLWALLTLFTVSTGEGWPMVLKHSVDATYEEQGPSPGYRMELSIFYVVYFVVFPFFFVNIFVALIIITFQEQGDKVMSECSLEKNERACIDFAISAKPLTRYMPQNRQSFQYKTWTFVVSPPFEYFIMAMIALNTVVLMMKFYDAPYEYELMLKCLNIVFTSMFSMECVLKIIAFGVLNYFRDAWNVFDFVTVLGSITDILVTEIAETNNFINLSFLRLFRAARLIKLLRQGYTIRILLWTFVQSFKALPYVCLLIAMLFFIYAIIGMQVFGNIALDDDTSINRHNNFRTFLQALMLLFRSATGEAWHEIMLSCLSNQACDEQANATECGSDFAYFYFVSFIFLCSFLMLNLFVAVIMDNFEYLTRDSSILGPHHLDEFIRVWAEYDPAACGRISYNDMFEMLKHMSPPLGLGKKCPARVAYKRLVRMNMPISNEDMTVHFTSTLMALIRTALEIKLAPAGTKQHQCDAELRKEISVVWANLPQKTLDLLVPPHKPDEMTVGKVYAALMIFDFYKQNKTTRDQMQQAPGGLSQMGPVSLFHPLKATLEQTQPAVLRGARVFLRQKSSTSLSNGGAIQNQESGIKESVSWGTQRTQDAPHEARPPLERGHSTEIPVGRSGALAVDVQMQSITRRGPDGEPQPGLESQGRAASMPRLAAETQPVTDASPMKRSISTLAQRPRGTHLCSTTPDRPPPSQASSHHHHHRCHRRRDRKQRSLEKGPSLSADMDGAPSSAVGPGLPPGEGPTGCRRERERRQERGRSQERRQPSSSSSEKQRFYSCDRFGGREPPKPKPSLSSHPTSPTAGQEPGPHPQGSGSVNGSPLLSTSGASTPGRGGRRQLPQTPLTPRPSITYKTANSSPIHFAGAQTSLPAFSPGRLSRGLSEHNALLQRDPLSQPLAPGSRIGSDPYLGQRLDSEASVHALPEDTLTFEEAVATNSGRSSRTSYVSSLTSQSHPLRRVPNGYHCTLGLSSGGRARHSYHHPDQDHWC
Sequence of Voltage-gated N-type calcium channel alpha-1B subunit/Amyloid beta A4 precursor protein-binding family A member 1 (Q02410 whole entry): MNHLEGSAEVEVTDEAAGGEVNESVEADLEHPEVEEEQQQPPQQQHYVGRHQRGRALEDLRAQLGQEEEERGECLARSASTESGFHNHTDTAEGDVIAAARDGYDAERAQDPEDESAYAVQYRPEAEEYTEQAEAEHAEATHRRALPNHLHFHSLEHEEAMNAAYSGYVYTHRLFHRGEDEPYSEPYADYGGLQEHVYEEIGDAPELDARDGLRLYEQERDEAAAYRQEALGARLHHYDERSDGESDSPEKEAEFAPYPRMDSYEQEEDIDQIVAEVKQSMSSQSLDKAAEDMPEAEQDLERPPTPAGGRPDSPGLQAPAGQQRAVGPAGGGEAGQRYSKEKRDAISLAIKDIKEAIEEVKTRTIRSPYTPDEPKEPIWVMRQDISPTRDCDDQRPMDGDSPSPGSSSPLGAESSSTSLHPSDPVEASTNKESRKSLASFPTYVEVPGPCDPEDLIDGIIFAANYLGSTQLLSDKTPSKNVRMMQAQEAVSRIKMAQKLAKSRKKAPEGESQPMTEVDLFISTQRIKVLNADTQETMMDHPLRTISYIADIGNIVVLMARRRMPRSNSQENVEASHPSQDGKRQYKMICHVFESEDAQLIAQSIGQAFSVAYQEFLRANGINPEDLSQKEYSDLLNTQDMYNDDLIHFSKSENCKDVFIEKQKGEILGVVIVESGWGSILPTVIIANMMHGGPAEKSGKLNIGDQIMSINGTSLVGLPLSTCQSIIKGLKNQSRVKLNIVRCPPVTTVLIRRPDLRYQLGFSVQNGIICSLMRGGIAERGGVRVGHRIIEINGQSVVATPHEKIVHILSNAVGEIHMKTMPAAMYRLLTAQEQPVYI

As for `CCCCCCCCCCOC(=O)C[n+]1c(COc2ccccc2C)n(C)c2ccccc21`, the EC50 on Protein RecA was 7.26 µM (active). In test [1], the AC50 was 3.01 µM (active). Moreover, in test [2], the IC50 is 8.53 µM (active).
As to `Oc1nc(Nc2ccccc2)cc2ccccc12`, the EC50 at Protein RecA is 1.9 µM (active). For the same compound, in test [1], the AC50 was > 380 µM (inactive). Moreover, the IC50 in test [2] was 3.31 µM (active).
`COc1cc(OC)c(-c2c3cc(O)c(=O)cc-3oc3cc(O)c(O)cc23)cc1OC`: the IC50 in test [3] is > 50 µM (inactive).

One may read the EC50 as the concentration that produces a half-maximal response. As usually defined, the AC50 is the concentration at which the activity in the assay is half-maximal. Usually IC50 stands for the concentration at which inhibition is half-maximal.
